{"source": "the METLIN SMRT retention time set (Domingo-Almenara et al. 2019)", "assay": "gradient 5% acetonitrile 3 min, to 50% in 2 min, to 85% in 15 min, held 3 min, 100 µL/min", "settings": "column: Zorbax Extend-C18 2.1 x 50 mm; eluents: water / acetonitrile, 0.1% formic acid", "method_in_brief": "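Retention time was recorded from adduct peaks, which were picked computationally and each inspected manually. Pure standards ran in mixtures of ~100 molecules on HPLC coupled to a quadrupole time-of-flight mass spectrometer, in positive and negative ionization mode, through a Zorbax Extend-C18 column (2.1 × 50 mm, 1.8 μm) at 100 μL/min. Eluents were water and acetonitrile, each with 0.1% formic acid.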"}
{"smiles": "COc1ccc(NC(=O)CSc2nccc(N3CCCC3)n2)cc1Cl", "values": [{"measurement": "RP-LC retention time", "value": 593, "unit": "s"}]}
{"smiles": "CCc1ccc(S(=O)(=O)c2cnc(N3CCC(C(N)=O)(N4CCCCC4)CC3)nc2N)cc1", "values": [{"measurement": "RP-LC retention time", "value": 661, "unit": "s"}]}
{"smiles": "COCCNC(=O)C1CCN(c2nc3ccc(-c4ccc(F)cc4)nc3s2)CC1", "values": [{"measurement": "RP-LC retention time", "value": 835, "unit": "s"}]}
{"smiles": "CS(=O)(=O)N1CC(F)(F)C[C@H]1c1nc(-c2ccccc2)no1", "values": [{"measurement": "RP-LC retention time", "value": 858, "unit": "s"}]}
{"smiles": "COCC(=O)NC1CCC12CCN(C(=O)C1CCOCC1)CC2", "note": "(stereo unspecified)", "values": [{"measurement": "RP-LC retention time", "value": 603, "unit": "s"}]}
{"smiles": "Cc1cc(NC(=O)c2cc3c(=O)n(CC(C)C)ccc3n2C)ccc1Br", "values": [{"measurement": "RP-LC retention time", "value": 1030, "unit": "s"}]}
{"smiles": "O=C(O)c1ccc2c(c1Sc1ccccc1)C(=O)c1ccccc1C2=O", "values": [{"measurement": "RP-LC retention time", "value": 887, "unit": "s"}]}
{"smiles": "O=C(N[C@H]1C[C@@H]2C[C@H]1N(C(=O)c1ccccc1Cl)C2)c1cccs1", "values": [{"measurement": "RP-LC retention time", "value": 643, "unit": "s"}]}
{"smiles": "Cc1ccc(NC(=O)CSc2ccc(N3CCCC(C(=O)NC4CC4)C3)nn2)cc1", "note": "(stereo unspecified)", "values": [{"measurement": "RP-LC retention time", "value": 659, "unit": "s"}]}
{"smiles": "CCc1noc2nc(C)n(CC(=O)NCc3ccc(C)cc3)c(=O)c12", "values": [{"measurement": "RP-LC retention time", "value": 829, "unit": "s"}]}
{"smiles": "Cc1ccc(F)cc1NC(=O)Cn1cnc(C)c(C)c1=O", "values": [{"measurement": "RP-LC retention time", "value": 660, "unit": "s"}]}
{"smiles": "CCn1c(CN2CCN(S(C)(=O)=O)CC2)nc2cc(NC(=O)CC(C)C)ccc21", "values": [{"measurement": "RP-LC retention time", "value": 630, "unit": "s"}]}
{"smiles": "COc1cc(C(=O)N2CCN(c3c(C)n(C)c(=O)n(C)c3=O)CC2)cc(OC)c1OC", "values": [{"measurement": "RP-LC retention time", "value": 673, "unit": "s"}]}
{"smiles": "CNC(=O)[C@H]1O[C@@H](n2cnc3c(N)ncnc32)C(O)[C@H]1O", "note": "(stereo partly specified)", "values": [{"measurement": "RP-LC retention time", "value": 621, "unit": "s"}]}
{"smiles": "COCCCNC(=O)c1cc(-c2ccc(OC)cc2)nc2n[nH]c(-c3ccccc3)c12", "values": [{"measurement": "RP-LC retention time", "value": 789, "unit": "s"}]}
{"smiles": "O=C(N1CCOCC1)N1CCN(S(=O)(=O)c2cccc([N+](=O)[O-])c2)CC1", "values": [{"measurement": "RP-LC retention time", "value": 668, "unit": "s"}]}
{"smiles": "Nc1c(C(=O)NCc2ccccc2Cl)nsc1C(=O)N1CCN(c2ccccn2)CC1", "values": [{"measurement": "RP-LC retention time", "value": 715, "unit": "s"}]}
{"smiles": "O=S(=O)(Cc1ccccc1)N1CCC(Cc2nc(-c3cccnc3)n[nH]2)C1", "note": "(stereo unspecified)", "values": [{"measurement": "RP-LC retention time", "value": 628, "unit": "s"}]}
{"smiles": "CCN1C(=O)c2cccnc2Sc2cc(NC(=O)c3ccc(Cl)cc3)ccc21", "values": [{"measurement": "RP-LC retention time", "value": 907, "unit": "s"}]}
{"smiles": "Cc1cc(SCC(=O)c2ccc3c(c2)OCO3)nc(C(C)C)n1", "values": [{"measurement": "RP-LC retention time", "value": 764, "unit": "s"}]}
{"smiles": "CNC(=O)C1CCCN(c2nc3ncn(CC(=O)Nc4cccc(F)c4)c(=O)c3s2)C1", "note": "(stereo unspecified)", "values": [{"measurement": "RP-LC retention time", "value": 645, "unit": "s"}]}
{"smiles": "COc1ccccc1CNC(=O)Cn1nc2c(N3CCCCCC3)nccn2c1=O", "values": [{"measurement": "RP-LC retention time", "value": 694, "unit": "s"}]}
{"smiles": "OC(COCc1ccc(Cl)cc1)CN1CCN(c2ccccn2)CC1", "note": "(stereo unspecified)", "values": [{"measurement": "RP-LC retention time", "value": 567, "unit": "s"}]}
{"smiles": "Cc1ccnc(Nc2nc(-c3ccc(C)c(C)c3)cs2)c1", "values": [{"measurement": "RP-LC retention time", "value": 902, "unit": "s"}]}
{"smiles": "COc1ccc2c(c1)OC1(C)CC2C(S(=O)(=O)c2ccc(C)cc2)C(=O)N1", "note": "(stereo unspecified)", "values": [{"measurement": "RP-LC retention time", "value": 877, "unit": "s"}]}
{"smiles": "c1ccc(Sc2ncnc3ccccc23)cc1", "values": [{"measurement": "RP-LC retention time", "value": 1050, "unit": "s"}]}
{"smiles": "COc1cc([C@@H]2c3cc4c(cc3[C@H](O)[C@@H](CO)[C@@H]2C(=O)Nc2ccc(C)cc2)OCO4)cc(OC)c1OC", "values": [{"measurement": "RP-LC retention time", "value": 763, "unit": "s"}]}
{"smiles": "NC(=O)c1ccc2c(c1)n(Cc1ccccc1)c(=O)c1ccnn12", "values": [{"measurement": "RP-LC retention time", "value": 674, "unit": "s"}]}
{"smiles": "COc1cccc(NC(=O)C2CCCN(c3nc4ccccc4nc3OC)C2)c1", "note": "(stereo unspecified)", "values": [{"measurement": "RP-LC retention time", "value": 1100, "unit": "s"}]}
{"smiles": "COc1ccccc1NC(=O)[C@H]1[C@H]2C=C[C@]3(CN(Cc4cccnc4)C(=O)[C@@H]13)O2", "values": [{"measurement": "RP-LC retention time", "value": 597, "unit": "s"}]}
{"smiles": "CCOc1ccc(N(C)S(=O)(=O)c2ccsc2C(=O)NC(C)CCc2ccccc2)cc1", "note": "(stereo unspecified)", "values": [{"measurement": "RP-LC retention time", "value": 1260, "unit": "s"}]}
{"smiles": "CC1=C(c2ccc(C)c(C)c2)S(=O)(=O)N=C1N1CCC(C(=O)NC(C)Cc2ccco2)CC1", "note": "(stereo unspecified)", "values": [{"measurement": "RP-LC retention time", "value": 855, "unit": "s"}]}
{"smiles": "CC(C)NC(=O)c1ccccc1OCC1CCCN(C2CCCC2)C1", "note": "(stereo unspecified)", "values": [{"measurement": "RP-LC retention time", "value": 635, "unit": "s"}]}
{"smiles": "Cn1nnc2cc(-c3noc(CNC(=O)c4ccccc4)n3)ccc21", "values": [{"measurement": "RP-LC retention time", "value": 708, "unit": "s"}]}
{"smiles": "Cn1ncc2c(N3CCSCC3)nc(C(=O)N3CCN(c4ccccc4)CC3)nc21", "values": [{"measurement": "RP-LC retention time", "value": 830, "unit": "s"}]}
{"smiles": "Cc1cccc(-c2noc(-c3nn(-c4ccccc4)ccc3=O)n2)c1", "values": [{"measurement": "RP-LC retention time", "value": 898, "unit": "s"}]}
{"smiles": "COc1c2c(cc3c1OCO3)CCN(C)C2", "values": [{"measurement": "RP-LC retention time", "value": 598, "unit": "s"}]}
{"smiles": "CCOC(=O)c1csc(NC(=O)CC[C@H]2NC(=O)c3ccccc3NC2=O)n1", "values": [{"measurement": "RP-LC retention time", "value": 648, "unit": "s"}]}
{"smiles": "C#CCOCC1CCN(C(=O)Cc2noc3ccccc23)CC1", "values": [{"measurement": "RP-LC retention time", "value": 761, "unit": "s"}]}
{"smiles": "COc1cc2c(cc1OC)C(=O)C(CC1CCN(Cc3ccccc3)CC1)C2", "note": "(stereo unspecified)", "values": [{"measurement": "RP-LC retention time", "value": 690, "unit": "s"}]}
{"smiles": "CC(C)CC(C(=O)N1CCN(c2ccccn2)CC1)N1Cc2ccccc2C1=O", "note": "(stereo unspecified)", "values": [{"measurement": "RP-LC retention time", "value": 650, "unit": "s"}]}
{"smiles": "CC(C)c1ccc(Oc2nccn3c(=O)n(CC(=O)Nc4ccc(Br)cc4)nc23)cc1", "values": [{"measurement": "RP-LC retention time", "value": 1090, "unit": "s"}]}
{"smiles": "CCCN1C(=O)C2CCC(=O)N2c2ccc(C(=O)Nc3ccc4c(c3)OCCO4)cc21", "note": "(stereo unspecified)", "values": [{"measurement": "RP-LC retention time", "value": 770, "unit": "s"}]}
{"smiles": "CCn1c(=O)c(N2CCC(C(=O)NC3CCCCCCC3)CC2)nc2cccnc21", "values": [{"measurement": "RP-LC retention time", "value": 1080, "unit": "s"}]}
{"smiles": "Brc1ccc(OCc2nn3c(C4COc5ccccc5O4)nnc3s2)cc1", "note": "(stereo unspecified)", "values": [{"measurement": "RP-LC retention time", "value": 1040, "unit": "s"}]}
{"smiles": "COc1ccc(-c2nnc(-c3ccc(C)c(S(=O)(=O)NC(C)C)c3)o2)cc1OC", "values": [{"measurement": "RP-LC retention time", "value": 873, "unit": "s"}]}
{"smiles": "Cc1nc(-n2nc(C)c(CC(=O)N3CCCCCC3)c2C)sc1C", "values": [{"measurement": "RP-LC retention time", "value": 1010, "unit": "s"}]}
{"smiles": "COc1ccc(-c2csc(NC(=O)CS(=O)(=O)c3ccc(Cl)cc3)n2)cc1C", "values": [{"measurement": "RP-LC retention time", "value": 1080, "unit": "s"}]}
{"smiles": "Clc1cc(Br)ccc1-c1ccc(CNCc2cccnc2)o1", "values": [{"measurement": "RP-LC retention time", "value": 664, "unit": "s"}]}
{"smiles": "CC1CCN(C(=O)c2ccc3c(c2)CCCN3S(C)(=O)=O)CC1", "values": [{"measurement": "RP-LC retention time", "value": 836, "unit": "s"}]}
{"smiles": "CCC(=O)N1CCc2cc(-c3ccc(C(=O)NCCCN4CCOCC4)cc3)ccc21", "values": [{"measurement": "RP-LC retention time", "value": 628, "unit": "s"}]}
{"smiles": "CNC(=O)[C@@H]1C[C@H](Oc2ccccc2)CN1C(=O)Cn1c(=O)oc2ccccc21", "values": [{"measurement": "RP-LC retention time", "value": 732, "unit": "s"}]}
{"smiles": "Cc1sc(C)c(S(=O)(=O)NCc2ccc(F)cc2)c1-c1cc(C(F)(F)F)on1", "values": [{"measurement": "RP-LC retention time", "value": 1160, "unit": "s"}]}
{"smiles": "Cc1cc2c(cc1NC(=O)c1ccco1)n(C)c(=O)c(=O)n2C", "values": [{"measurement": "RP-LC retention time", "value": 614, "unit": "s"}]}
{"smiles": "CCOc1cccc(CNC(=O)c2c(O)c3cccnc3[nH]c2=O)c1", "values": [{"measurement": "RP-LC retention time", "value": 969, "unit": "s"}]}
{"smiles": "CCc1nc2cc(N3CCC(C(=O)Nc4ccc(OC)c(OC)c4)CC3)cnc2nc1CC", "values": [{"measurement": "RP-LC retention time", "value": 766, "unit": "s"}]}
{"smiles": "CC(=O)c1ccc(NC(=O)C(C)Oc2cc(C(F)(F)F)c3c(C)nn(C)c3n2)cc1", "note": "(stereo unspecified)", "values": [{"measurement": "RP-LC retention time", "value": 968, "unit": "s"}]}
{"smiles": "O=C(CSc1nnc2c3cc(-c4ccc(F)cc4)nn3ccn12)Nc1ccccc1Br", "values": [{"measurement": "RP-LC retention time", "value": 935, "unit": "s"}]}
{"smiles": "Cc1cccc(N2CCN(S(=O)(=O)c3cc(-c4cc(C(F)(F)F)on4)cs3)CC2)c1C", "values": [{"measurement": "RP-LC retention time", "value": 1420, "unit": "s"}]}
{"smiles": "CCN(C(=O)c1ccco1)c1nc(-c2ccc(C)cc2)cs1", "values": [{"measurement": "RP-LC retention time", "value": 1280, "unit": "s"}]}
{"smiles": "CCOc1cccc(-c2noc(Cc3nnc(-c4cccc(OC)c4)o3)n2)c1", "values": [{"measurement": "RP-LC retention time", "value": 1080, "unit": "s"}]}
{"smiles": "Cc1noc(-c2ccc(=O)n(CC(C)C)n2)n1", "values": [{"measurement": "RP-LC retention time", "value": 761, "unit": "s"}]}
{"smiles": "Cc1cc(C(=O)NCc2ccc(C)o2)c2c(C)nn(-c3ccccc3)c2n1", "values": [{"measurement": "RP-LC retention time", "value": 964, "unit": "s"}]}
{"smiles": "Cc1ccc(-c2noc(-c3nnn4c3COC(c3ccc(Cl)cc3)C4)n2)cc1", "note": "(stereo unspecified)", "values": [{"measurement": "RP-LC retention time", "value": 1310, "unit": "s"}]}
{"smiles": "COc1ccc(C(=O)N2CCN3CCS(=O)(=O)N(C4CC4)C(=O)C3C2)cc1", "note": "(stereo unspecified)", "values": [{"measurement": "RP-LC retention time", "value": 715, "unit": "s"}]}
{"smiles": "CSc1ccc(-c2noc(Cn3c(=O)n(CC(C)C)c(=O)c4ccccc43)n2)cc1", "values": [{"measurement": "RP-LC retention time", "value": 1210, "unit": "s"}]}
